The results in this text go back to patent publication US7491849B2, “Oligoamine compounds and derivatives thereof for cancer therapy” (priority 2001, dated 2009).

Molecules are shown by their SMILES.

Data set [1] concerns Calf-thymus DNA. Briefly: Calf-thymus DNA aggregation (absorbance at 320 nm). As to conditions: 50 mM NaCl, 1 mM Na-cacodylate pH 7.0. In kind it is biochemical. The protocol: Calf-thymus DNA aggregation by spermine and oligoamines.
Test for DNA Aggregation: DNA aggregation was studied using a Perkin-Elmer Lambda 25 UV/visible spectrophotometer connected to a PTP 6 heating unit using a previously published procedure (see Basu, H S and Marton, L J, “The interaction of spermine and pentamines with DNA,” Biochemical Journal 244:243-246 (1987)). Aggregation was determined in 50 mM NaCl, 1 mM Na-cacodylate pH 7.0 buffer by observing the increase in DNA absorbance (approximately 0.5 A260 units) at 320 nm.

Data set [2] deals with DU145. Briefly: MTT assay, tumor cell growth, DU145. In kind it is cell-based. The conditions noted are these: 6 days incubation, read-out: ID50 (μM) values for Human Tumor Cell Lines, DU145. As for the experimental part: (§1) Effect of Saturated Oligoamines on Human Prostate Tumor Cell Growth by the MTT assay. Saturated oligoamines inhibited prostate cancer cell growth in vitro. DU-145 cells were most sensitive and PC-3 cells were less sensitive to the effects of oligoamines. In general, ID50 values of less than 0.5 μM were obtained (Table 2). Even though the PC-3 cells were relatively more resistant to the oligoamines, at a 5 μM concentration the oligoamines reduced the cell number to less than 1% of the control on day 6 of incubation. Tissue cultures and the MTT assay were performed as follows.
(§2) Tissue Culture. Cells were seeded into 75 cm^2 culture flasks with 15 ml of Eagle's minimal essential medium supplemented with 10% fetal calf serum and nonessential amino acids. The flasks were incubated in a humidified 95% air/5% CO2 atmosphere. The cells were grown for at least 24 h to ensure that they are in the log phase of growth and then they were treated with the oligoamines. Cells were harvested by treatment for 5 min with STV (saline A, 0.05% trypsin, 0.02% EDTA) at 37° C. The flasks were rapped on the lab bench, pipetted several times and aliquots of cell suspension were withdrawn and counted using a Coulter particle counter that has been standardized for counting each cell line using a hemacytometer.
(§3) MTT Assay: Trypsinized cell suspensions were diluted to seed 80 μl suspensions containing 500 cells in each well of a 96 well Corning microtiter plate and incubated overnight at 37° C. in a humidified incubator in 5% CO2. 20 μl of appropriately diluted stock solution of each drug were added to the middle 8 columns of cell suspension in the microtiter plates. Each drug concentration was run in quadruplicate. Outer columns of the plates were used for buffer controls. Cells were incubated with the drug for 6 days at 37° C. in 5% CO2/H2O atmosphere. 25 μl of 5 mg/ml solution of 3-(4,5-dimethylthiazol-2-yl)-2,5-diphenyl tetrazolium bromide (MTT) were added to each well and incubated for 4 hours at 37° C. in 5% CO2/H2O incubator. Cells were lysed by incubating overnight with 100 μl lysis buffer (500 ml of the lysis buffer contains: 100 g lauryl sulfate (SDS), 250 ml of N,N-dimethylformamide, and 2 ml of glacial acetic acid, made up to volume with water; pH 4.8).
(§4) The color was monitored at room temperature at 570 nm in a E-max Precision Microplate Reader (Molecular Devices Corporation, Sunnyvale, Calif.) and data was analyzed using cell survival software supplied by Molecular Devices Corporation.

Data set [3] relates to DuPro. The experiment in a line: MTT assay, tumor cell growth, DuPro. In kind it is cell-based. The conditions noted are these: 6 days incubation, read-out: ID50 (μM) values for Human Tumor Cell Lines, DuPro. The protocol:
as §1, §2, §3, §4

For data set [4], the system named is PC-3. The experiment in a line: MTT assay, tumor cell growth, PC-3. As to conditions: 6 days incubation, read-out: ID50 (μM) values for Human Tumor Cell Lines, PC-3. In kind it is cell-based. As for the experimental part:
as §1, §2, §3, §4

Data set [5] has as its system DuPro Cells. The experiment in a line: Cellular polyamine and oligoamine levels, DuPro cells (HPLC). In kind it is cell-based. The protocol:
(§5) Cellular Uptake of Oligoamines. There was considerable uptake of oligoamines by the cancer cell lines; see Table 3A (DuPro cells) and Table 3B (PC-3 cells). […] While not wishing to be limited by any particular theory of operation, the cytotoxicity is likely related to their strong aggregation effect on DNA.
(§6) Polyamine Analysis. An appropriate number of cells were taken from harvested samples and centrifuged at 1000 rpm at 4° C. for 5 min. The cells were washed twice with chilled Dulbecco's isotonic phosphate buffer (pH 7.4) by centrifugation at 1000 rpm at 4° C. and resuspended in the same buffer. After the final centrifugation, the supernatant was decanted, and […] of 8% sulfosalycilic acid was added to the cell pellet. The cells were sonicated, and the mixture was kept at 4° C. for at least 1 h. After centrifugation at 8000 g for 5 min, the supernatant was removed for analysis. An appropriate volume (50-100 μl) was fluorescence-labeled by derivatizing with dansyl chloride. Labeled polyamines were loaded onto a C-18 high-performance liquid chromatography column and separated by gradient elution with acetonitrile/water at 50° C. Peaks were detected and quantitated using Shimadzu HPLC fluorescence monitor coupled with a Spectra-Physics peak integrator. Because polyamine levels vary with environmental conditions, control cultures were sampled for each experiment.

In data set [6] the test system is PC-3 Cells. Briefly: Cellular polyamine and oligoamine levels, PC-3 cells (HPLC). In kind it is cell-based. The protocol:
as §5, §6

Data set [7] is described as follows: Solubility in water for injection. In kind it is physicochemical. The conditions noted are these: dosing solution, 6.25 mg/kg in 0.1 mL/10 g body weight. The protocol:
Response of implanted sc DU-145 prostate tumors to treatment with SL-11159 and SL-11226. This experiment evaluates the antitumor efficacy of SLIL Biomedical Corporation compounds (SL-11159, SL-11226) against subcutaneously-implanted DU-145 human prostate tumor xenografts in male NCr-nu (line 3A10F17T1) mice. All compounds were tested at a single dose level when administered intravenously (iv), at 6.25 mg/kg. Both SL-11159 and SL-11226 were prepared in water for injection (soluble); the injection volume was 0.1 mL/10 g body weight.

[8] abbreviates: Day 4 of Treatment, analog conc. 0.8 μM.
Setting [9] is: Day 4 of Treatment, analog conc. 1.6 μM.
Setting [10] is: PC-3, Day 4 of Treatment, analog conc. 1 μM.
Where [11] appears, read: PC-3, Day 4 of Treatment, analog conc. 5 μM.
[12] abbreviates: PC-3, Day 6 of Treatment, analog conc. 1 μM.
Where [13] appears, read: Day 6 of Treatment, analog conc. 0.8 μM.

In the case of `CCNCCCCNCCCCNCCCCNCCCCNCCCCNCCCCNCCCCNCCCCNCCCCNCC.Cl.Cl.Cl.Cl.Cl.Cl.Cl.Cl.Cl.Cl` [SL-11159], the “Conc. (μM) at the start of DNA Aggregation” value in data set [1] came out at 2.5 µM. Further, the IC50 came out at 0.15 µM in data set [2], 0.3 µM in data set [3] and 0.6 µM in data set [4]. Also, the “Polyamine levels, Analog (cellular oligoamine level)” value in data set [5] (setting [8]) was found to be 0.525 nmoles/10^6 cells; in data set [5] (setting [9]), 0.513 nmoles/10^6 cells; in data set [6] (setting [10]) it was 0.513 nmoles/10^6 cells; in data set [6] (setting [11]), 0.388 nmoles/10^6 cells; in data set [6] (setting [12]) it was 1.026 nmoles/10^6 cells. For the same compound, the “Polyamine levels, Put” value in data set [5] (setting [8]) came to 0.560 nmoles/10^6 cells; in data set [5] (setting [9]), 0.137 nmoles/10^6 cells; in data set [6] (setting [10]) it was 0.525 nmoles/10^6 cells; in data set [6] (setting [11]), 0.670 nmoles/10^6 cells; in data set [6] (setting [12]) it was 0.640 nmoles/10^6 cells. Moreover, in data set [6] (setting [10]), the “Polyamine levels, Spd” value came to 0.531 nmoles/10^6 cells. Further, the figures for the “Polyamine levels, Spm” value in data set [6] (setting [10]) and in data set [6] (setting [11]) were 0.300 nmoles/10^6 cells and 0.240 nmoles/10^6 cells, respectively. Moreover, the “solubility in water for injection” value in data set [7] is recorded as “soluble”.

As to `CCNCCCCNCCCCNCCCCNCCCCNCCCCNCCCCNCCCCNCCCCNCCCCNCCCCNCCCCNCC.Cl.Cl.Cl.Cl.Cl.Cl.Cl.Cl.Cl.Cl.Cl.Cl` [SL-11226], the “Conc. (μM) at the start of DNA Aggregation” value in data set [1] worked out at 2.2 µM. Moreover, the IC50 turned out to be 0.08 µM in data set [2], 0.11 µM in data set [3] and 0.14 µM in data set [4]. In addition, the “Polyamine levels, Analog (cellular oligoamine level)” value in data set [5] (setting [8]) was found to be 0.032 nmoles/10^6 cells; in data set [5] (setting [13]), 0.022 nmoles/10^6 cells; in data set [6] (setting [10]) it was 0.021 nmoles/10^6 cells; in data set [6] (setting [11]), 0.026 nmoles/10^6 cells. The “Polyamine levels, Put” value in data set [5] (setting [8]) turned out to be 0.593 nmoles/10^6 cells; in data set [5] (setting [13]) it was 0.548 nmoles/10^6 cells; in data set [6] (setting [10]), 0.573 nmoles/10^6 cells; in data set [6] (setting [11]), 0.985 nmoles/10^6 cells. The “Polyamine levels, Spd” value in data set [5] (setting [8]) was found to be 0.017 nmoles/10^6 cells; in data set [6] (setting [11]), 0.071 nmoles/10^6 cells. Besides, the “Polyamine levels, Spm” value in data set [5] (setting [8]) was determined as 0.067 nmoles/10^6 cells. In data set [7], the “solubility in water for injection” value is “soluble”.
